# System: compound 48/80-induced lethality in rats
# Test: Protection of rats from compound 48/80-induced lethality
# Type: in vivo, rat (male, inbred Wistar strain)
# Details: Rattus norvegicus, 4 h, male Wistar rats; s.c. or oral, one hour before 0.5 mg/kg i.v. compound 48/80; ED50 = dose protecting 50% of animals; survival after 4 hours; read-out: compound 48/80 lethality test in rats-ED50
# From the text: Protection of rats from compound 48/80-induced lethality.
# Compound 48/80, a mixture of oligomers obtained by condensation of 4-methoxy-N-methylbenzeneethanamine and formaldehyde has been described as a potent histamine releasing agent (Int. Arch. Allergy, 13, 336 (1958)). The protection from compound 48/80-induced lethal circulatory collapse appears to be a simple way of evaluating quantitatively the antihistaminic activity of test compounds. Male rats of an inbred Wistar strain, weighing 240-260 g were used in the experiment. After overnight starvation the rats were transferred to conditioned laboratories (temp.=21±1° C., relative humidity=65±5%). The rats were treated subcutaneously or orally with a test compound or with the solvent (NaCl solution, 0.9%). One hour after treatment there was injected intravenously compound 48/80, freshly dissolved in water, at a dose of 0.5 mg/kg (0.2 ml/100 g of body weight). In control experiments, wherein 250 solvent-treated animals were injected with the standard dose of compound 48/80, not more than 2.8% of the animals survived after 4 hours. Survival after 4 hours is therefore considered to be a safe criterion of a protective effect of drug administration.
# Said ED50 -values are the values in mg/kg body weight at which the tested compounds protect 50% of the tested animals against compound 48/80-induced lethality.
row,Molecule,ED50 [mg/kg]
1,"c1ccc(CCN2CCC(Nc3nc4cncnc4n3Cc3ccccn3)CC2)nc1 [Compound 144, N-[1-[2-(2-pyridinyl)ethyl]-4-piperidinyl]-9-(2-pyridinylmethyl)-9H-purin-8-amine]",0.04
2,COc1ccc(CCN2CCC(Nc3nc4cncnc4n3Cc3ccc(C)o3)CC2)cc1 [Compound 79],0.04
3,COc1ccc(CCN2CCC(Nc3nc4ncncc4n3Cc3ccc(F)cc3)CC2)cc1 [Compound 78],0.04
4,"O=c1[nH]c2ccccc2n1CCN1CCC(Nc2nc3cncnc3n2Cc2ccc(F)cc2)CC1 [Compound 115, 1-[2-[4-[[9-[(4-fluorophenyl)methyl]-9H-puri-8-yl]amino]-1-piperidinyl]ethyl]-1,3-dihydro-2H-benzimidazol-2-one]",0.08
5,COc1ccc(CCN2CCC(Nc3nc4cncnc4n3Cc3ccc(F)cc3)CC2)cc1 [Compound 75],0.08
6,"Cc1nc2ccccn2c(=O)c1CCN1CCC(Nc2nc3cncnc3n2Cc2cnccn2)CC1 [Compound 87, 2-methyl-3-[2-[4-[[9-(2-pyrazinylmethyl)-9H-purin-8-yl]amino]-1-piperidinyl]-ethyl]-4H-pyrido[1,2-a]pyrimidin-4-one]",0.08
7,COc1ccc(CCN2CCC(Nc3nc4cncnc4n3Cc3ccccc3)CC2)cc1 [Compound 83],0.08
8,"COc1ccc(CCN2CCC(Cc3nc4ncnc(O)c4n3Cc3ccc(F)cc3)CC2)cc1 [Compound 62, 7-[(4-fluorophenyl)methyl]-8-[[1-[2-(4-methoxyphenyl)ethyl]-4-piperidinyl]methyl]-7H-purin-6-ol]",0.04
9,"c1ccc(CCN2CCC(Nc3nc4cncnc4n3Cc3cccs3)CC2)nc1 [Compound 143, N-[1-[2-(2-pyridinyl)ethyl]-4-piperidinyl]-9-(2-thienylmethyl)-9H-purin-8-amine]",0.02
10,Cc1ccc(Cn2c(NC3CCN(CCNc4ncccn4)CC3)nc3cncnc32)o1 [Compound 168],0.02
11,COc1ccc(CCN2CCC(Nc3nc4cncnc4n3Cc3ccco3)CC2)cc1 [Compound 76],0.02
12,"Fc1ccc(Cn2c(NC3CCN(CCc4ccccn4)CC3)nc3cncnc32)cc1 [Compound 141, 9-[(4-fluorophenyl)methyl]-N-[1-[2-(2-pyridinyl)ethyl]-4-piperidinyl]-9H-purin-8-amine]",0.01
13,Cc1nc2ccccn2c(=O)c1CCN1CCC(Nc2nc3cncnc3n2Cc2ccco2)CC1 [Compound 88],0.02
14,"Fc1ccc(Cn2c(NC3CCN(CCNc4nccs4)CC3)nc3cncnc32)cc1 [Compound 172, 9-[(4-fluorophenyl)methyl]-N-[1-[2-(2-thiazolylamino)ethyl)-4-piperidinyl]-9H-purin-8-amine]",0.04
15,COc1ncnc2c1nc(CC1CCN(CCNc3ncccn3)CC1)n2Cc1ccc(F)cc1 [Compound 169],0.08
16,"Fc1ccc(Cn2c(NC3CCN(CCNc4nc5cnccc5[nH]4)CC3)nc3cncnc32)cc1 [Compound 183, 9-[(4-fluorophenyl)methyl]-N-[1-[2-[(1H-imidazo[4,5-c]pyridin-2-yl)amino]ethyl]-4-piperidinyl]-9H-purin-8-amine (E)-2-butenedioate(1:3) monohydrate]",0.04

row,Molecule,ED50 [mg/kg]
1,Cc1nc2ccccn2c(=O)c1CCN1CCC(Nc2nc3cncnc3n2Cc2ccccc2)CC1 [Compound 100],0.02
2,"COc1ccc(CCN2CCC(Nc3nc4cncnc4n3Cc3ccccn3)CC2)cc1 [Compound 74, N-[1-[2-(4-methoxyphenyl)ethyl]-4-piperidinyl]-9-(2-pyridinylmethyl)-9H-purin-8-amine]",0.01
3,O=c1oc2ccccc2cc1CCN1CCC(Nc2nc3cncnc3n2Cc2ccccn2)CC1 [Compound 106],0.08
4,Fc1ccc(Cn2c(CC3CCN(CCNc4ncccn4)CC3)nc3cncnc32)cc1 [Compound 171],0.08
5,"Cl.Cl.O.O.c1coc(Cn2c(NC3CCN(CC4COc5ccccc5O4)CC3)nc3cncnc32)c1 (stereo not shown) [Compound 60, N-[1-[(2,3-dihydro-1,4-benzodioxin-2-yl)methyl]-4-piperidinyl]-9-(2-furanyl-methyl)-9H-purin-8-amine dihydrochloride dihydrate]",0.08
6,COc1ccc(CCN2CCC(Oc3nc4cncnc4n3Cc3ccc(F)cc3)CC2)cc1 [Compound 64],0.08
7,O=c1oc2ccccc2cc1CCN1CCC(Nc2nc3cncnc3n2Cc2ccco2)CC1 [Compound 104],0.04
8,"O=C(O)/C=C/C(=O)O.O=C(O)/C=C/C(=O)O.O=c1[nH]c2ccccc2n1CCCN1CCC(Cc2nc3cncnc3n2Cc2ccc(F)cc2)CC1 [Compound 114, 1-[3-[4-[[9-[(4-fluorophenyl)methyl]-9H-purine-8-yl]methyl]-1-piperidinyl]-propyl]-1,3-dihydro-2H-benzimidazol-2-one (E)-2-butenedioate(1:2)]",0.04
9,c1cnc(NCCN2CCC(Nc3nc4cncnc4n3Cc3ccco3)CC2)nc1 [Compound 165],0.02
10,Cc1nc2ccccn2c(=O)c1CCN1CCC(Nc2nc3cncnc3n2Cc2cccs2)CC1 [Compound 89],0.08
11,COc1ccc(CCN2CCC(Nc3nc4cncnc4n3Cc3cccs3)CC2)cc1 [Compound 77],0.02
12,"Cc1ccc(Cn2c(NC3CCN(CC4COc5ccccc5O4)CC3)nc3cncnc32)o1 (stereo not shown) [Compound 61, N-[1-[(2,3-dihydro-1,4-benzodioxin-2-yl)methyl]-4-piperidinyl]-9-[(5-methyl-2-furanyl)methyl]-9H-purin-8-amine]",0.01
13,Cc1ccc(Cn2c(NC3CCN(CCc4cc5ccccc5oc4=O)CC3)nc3cncnc32)o1 [Compound 107],0.02
14,c1cnc(NCCN2CCC(Nc3nc4cncnc4n3Cc3cccs3)CC2)nc1 [Compound 167],0.08
15,"c1ccc(CCN2CCC(Nc3nc4cncnc4n3Cc3ccco3)CC2)nc1 [Compound 142, 9-(2-furanylmethyl)-N-[1-[2-(2-pyridinyl)ethyl]-4-piperidinyl]-9H-purin-8-amine]",0.02
16,"Cc1ccc(Cn2c(NC3CCN(CCc4ccccn4)CC3)nc3cncnc32)o1 [Compound 145, 9-[(5-methyl-2-furanyl)methyl]-N-[1-[2-(2-pyridinyl)ethyl]-4a-piperidinyl]-9H-purin-8-amine]",0.01

# Same assay, conditions: male Wistar rats; s.c. or oral, one hour before 0.5 mg/kg i.v. compound 48/80; ED50 = dose protecting 50% of animals; survival after 4 hours
row,Molecule,compound 48/80 lethality test in rats-ED50 [mg/kg body weight]
1,9-(2-furanylmethyl)-N-[1-[4-[(2-thiazolyl)amino]pentyl]-4-piperidinyl]-9H-purin-8-amine [Compound 173],0.08

# Same assay, conditions: male Wistar rats; s.c. or oral, one hour before 0.5 mg/kg i.v. compound 48/80; ED50 = dose protecting 50% of animals; survival after 4 hours; 240 min
row,Molecule,compound 48/80 lethality test in rats-ED50 [mg/kg body weight]
1,COc1ccc(CCN2CCC(Nc3nc4cncnc4n3Cc3ccc(F)cc3)CC2)cc1 [Compound 80],0.04
